The target in data set [1] is T1, Trypanothione reductase (Leishmania infantum, UniProt A4HSF7). The experiment in a line: Inhibition of oxidoreductase activity of recombinant Leishmania infantum trypanothione reductase pre-incubated for 10 mins before T[S]2 and NADPH addition.
For data set [2], the target named is T1, Trypanothione reductase. The experiment in a line: Inhibition of dimerization of HIS/FLAG tagged Leishmania infantum trypanothione reductase incubated for 16 hrs in presence of dimerization buffer by ELISA.
For data set [3], the system named is Leishmania infantum. The experiment in a line: Leishmanicidal activity against Leishmania infantum amastigotes at 25 uM after 24 hrs by propidium iodide staining based flow cytometry. The data set is classed as functional, organism-based. (Flow cytometry measures light scatter and fluorescence of single cells or particles in a stream.)
The subject of data set [4] is Leishmania infantum. Description: Leishmanicidal activity against Leishmania infantum MCAN/ES/89/IPZ229/1/89 promastigotes at 25 uM after 24 hrs by propidium iodide staining based flow cytometry. The data set is classed as functional, organism-based.
The next data set concerns the target Proteinase K (Engyodontium album, UniProt P06873). Description: Stability assessed as Tritirachium album proteinase K-mediated compound degradation by measuring half life at 50 uM by HPLC method. The data set is classed as ADME. The settings on record: parengyodontium album.

Here are results for 16 compounds from ChEMBL document CHEMBL4130478, “Improved proteolytic stability and potent activity against Leishmania infantum trypanothione reductase of α/β-peptide foldamers conjugated to cell-penetrating peptides” (Eur J Med Chem, 2017).

Structures are written as SMILES. The source made the active and inactive calls. The calls are words filed in the database; no cut-off is given here.

Sequence of Proteinase K (P06873 whole entry): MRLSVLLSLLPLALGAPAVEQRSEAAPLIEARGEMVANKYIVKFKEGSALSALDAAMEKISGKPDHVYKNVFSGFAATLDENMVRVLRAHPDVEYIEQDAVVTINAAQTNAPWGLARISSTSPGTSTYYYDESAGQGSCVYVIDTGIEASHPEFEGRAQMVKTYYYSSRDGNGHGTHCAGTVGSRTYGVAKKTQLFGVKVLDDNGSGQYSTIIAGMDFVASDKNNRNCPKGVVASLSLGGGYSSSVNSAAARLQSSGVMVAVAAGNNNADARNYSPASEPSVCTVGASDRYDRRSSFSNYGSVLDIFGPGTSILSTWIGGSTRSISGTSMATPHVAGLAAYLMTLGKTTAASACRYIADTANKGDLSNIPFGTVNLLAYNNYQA
T1 sequence (A4HSF7 whole entry): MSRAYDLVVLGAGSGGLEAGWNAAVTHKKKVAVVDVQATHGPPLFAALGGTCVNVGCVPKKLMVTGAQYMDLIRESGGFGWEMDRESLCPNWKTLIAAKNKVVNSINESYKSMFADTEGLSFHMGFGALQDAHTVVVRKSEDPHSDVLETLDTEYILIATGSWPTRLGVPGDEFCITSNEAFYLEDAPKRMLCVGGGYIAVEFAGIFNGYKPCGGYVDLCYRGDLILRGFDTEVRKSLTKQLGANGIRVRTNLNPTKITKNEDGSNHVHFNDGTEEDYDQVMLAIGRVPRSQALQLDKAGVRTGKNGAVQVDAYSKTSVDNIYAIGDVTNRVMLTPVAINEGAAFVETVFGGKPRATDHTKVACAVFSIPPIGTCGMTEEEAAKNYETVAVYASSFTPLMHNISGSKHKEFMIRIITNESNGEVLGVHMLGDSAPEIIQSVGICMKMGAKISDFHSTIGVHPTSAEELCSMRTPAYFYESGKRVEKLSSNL

For the compound `CCCC[C@H](NC(=O)[C@H](CO)NC(=O)[C@@H](NC(=O)CNC(=O)[C@@H](NC(=O)[C@H](CO)NC(=O)[C@H](CCC(N)=O)NC(=O)[C@@H](NC(=O)[C@@H](NC(=O)[C@H](CCCCN)NC(=O)[C@@H]1CCCN1C(C)=O)[C@@H](C)CC)[C@@H](C)CC)C(C)C)[C@@H](C)CC)C(N)=O`, the half-inhibitory concentration (IC50) was found to be 0.82 µM on Trypanothione reductase [1] and 4.21 µM on Trypanothione reductase [2].

`CCCC[C@H](NC(=O)[C@H](CO)NC(=O)[C@@H](NC(=O)C[C@H](C)NC(=O)[C@@H](NC(=O)[C@H](CO)NC(=O)[C@H](CCC(N)=O)NC(=O)C[C@@H](NC(=O)[C@@H](NC(=O)[C@H](CCCCN)NC(=O)[C@@H]1CCCN1C(C)=O)[C@@H](C)CC)[C@@H](C)CC)C(C)C)[C@@H](C)CC)C(N)=O`: the result in the data set with Leishmania infantum [3] and with Leishmania infantum [4] was inactive. Moreover, the figures for the IC50 at Trypanothione reductase [1] and at Trypanothione reductase [2] were 28.5 µM and 47.3 µM, respectively.

In the case of `CCCC[C@@H](CC(=O)N[C@@H](CCCCN)C(=O)N[C@@H](CCCC)C(N)=O)NC(=O)[C@@H](CO)NC(=O)[C@@H](NC(=O)CNC(=O)C[C@H](NC(=O)[C@H](CO)NC(=O)[C@H](CCC(N)=O)NC(=O)C[C@H](NC(=O)[C@@H](NC(=O)[C@H](CCCCN)NC(=O)[C@@H]1CCCN1C(C)=O)[C@@H](C)CC)[C@@H](C)CC)C(C)C)[C@@H](C)CC`, the outcome with Leishmania infantum [3] and with Leishmania infantum [4] was inactive.

Consider `CCCC[C@@H](CC(=O)N[C@@H](CCCCN)C(=O)N[C@@H](CCCC)C(N)=O)NC(=O)[C@@H](CO)NC(=O)[C@@H](NC(=O)C[C@H](C)NC(=O)[C@@H](NC(=O)[C@@H](CO)NC(=O)[C@H](CCC(N)=O)NC(=O)C[C@H](NC(=O)[C@@H](NC(=O)[C@H](CCCCN)NC(=O)C[C@@H]1CCCN1C(C)=O)[C@@H](C)CC)[C@@H](C)CC)C(C)C)[C@@H](C)CC`, for which the result in the data set with Leishmania infantum [3] and with Leishmania infantum [4] was inactive.

Consider `CCCC[C@H](NC(=O)[C@H](CCCCN)NC(=O)[C@H](CCCC)NC(=O)[C@@H](CO)NC(=O)[C@@H](NC(=O)CNC(=O)[C@@H](NC(=O)[C@@H](CO)NC(=O)[C@H](CCC(N)=O)NC(=O)[C@@H](NC(=O)[C@@H](NC(=O)[C@H](CCCCN)NC(=O)[C@@H]1CCCN1C(C)=O)[C@@H](C)CC)[C@@H](C)CC)C(C)C)[C@@H](C)CC)C(N)=O`, for which the outcome in the data set with Leishmania infantum [3] and in the data set on Leishmania infantum [4] was inactive.

For `CC[C@H](C)[C@H](NC(=O)CNC(=O)[C@@H](NC(=O)[C@H](CO)NC(=O)[C@H](CCC(N)=O)NC(=O)[C@@H](NC(=O)[C@@H](NC(=O)[C@H](CCCCN)NC(=O)[C@@H]1CCCN1C(C)=O)[C@@H](C)CC)[C@@H](C)CC)C(C)C)C(N)=O`, the IC50 was determined as 3.59 µM on Trypanothione reductase [1] and 15.7 µM on Trypanothione reductase [2].

Turning to `CCCC[C@H](NC(=O)[C@@H](CO)NC(=O)[C@@H](NC(=O)CNC(=O)[C@@H](NC(=O)[C@@H](CO)NC(=O)[C@H](CCC(N)=O)NC(=O)[C@@H](NC(=O)[C@@H](NC(=O)[C@H](CCCCN)NC(=O)[C@@H]1CCCN1C(C)=O)[C@@H](C)CC)[C@@H](C)CC)C(C)C)[C@@H](C)CC)C(N)=O`, the outcome in the data set on Leishmania infantum [3] and in the data set with Leishmania infantum [4] was inactive.

In the case of `CCCC[C@H](NC(=O)[C@H](CCCCN)NC(=O)[C@H](CCCC)NC(=O)[C@H](CO)NC(=O)[C@@H](NC(=O)CNC(=O)[C@@H](NC(=O)[C@H](CO)NC(=O)[C@H](CCC(N)=O)NC(=O)[C@@H](NC(=O)[C@@H](NC(=O)[C@H](CCCCN)NC(=O)[C@@H]1CCCN1C(C)=O)[C@@H](C)CC)[C@@H](C)CC)C(C)C)[C@@H](C)CC)C(N)=O`, the figures for the IC50 at Trypanothione reductase [1] and at Trypanothione reductase [2] were 1.2 µM and 10.3 µM, respectively. For the same compound, the half-life at 50 µM on Proteinase K was determined as 23 min.

As to `CCCC[C@H](NC(=O)[C@H](CCCCN)NC(=O)[C@H](CCCC)NC(=O)[C@H](CO)NC(=O)[C@@H](NC(=O)CNC(=O)C[C@H](NC(=O)[C@H](CO)NC(=O)[C@H](CCC(N)=O)NC(=O)[C@@H](NC(=O)C[C@H](NC(=O)[C@H](CCCCN)NC(=O)[C@@H]1CCCN1C(C)=O)[C@@H](C)CC)[C@@H](C)CC)C(C)C)[C@@H](C)CC)C(N)=O`, the outcome in the data set on Leishmania infantum [3] and in the data set with Leishmania infantum [4] was inactive. The values for the IC50 on Trypanothione reductase [1] and at Trypanothione reductase [2] were 8.78 µM and 13.7 µM, respectively.

With `CCCC[C@H](NC(=O)C[C@H](CCCCN)NC(=O)[C@H](CCCC)NC(=O)[C@H](CO)NC(=O)[C@@H](NC(=O)C[C@H](C)NC(=O)[C@@H](NC(=O)[C@H](CO)NC(=O)[C@H](CCC(N)=O)NC(=O)C[C@@H](NC(=O)[C@@H](NC(=O)[C@H](CCCCN)NC(=O)[C@@H]1CCCN1C(C)=O)[C@@H](C)CC)[C@@H](C)CC)C(C)C)[C@@H](C)CC)C(N)=O`, the result in the data set on Leishmania infantum [3] and with Leishmania infantum [4] was inactive. Besides, the IC50 was found to be 5.38 µM at Trypanothione reductase [1] and 13.8 µM on Trypanothione reductase [2].

For the compound `CC[C@H](C)[C@H](CC(=O)N[C@@H](CCC(N)=O)C(=O)N[C@@H](CO)C(=O)N[C@@H](CC(=O)NCC(=O)N[C@H](C(N)=O)[C@@H](C)CC)C(C)C)NC(=O)[C@@H](NC(=O)[C@H](CCCCN)NC(=O)[C@@H]1CCCN1C(C)=O)[C@@H](C)CC`, the result with Leishmania infantum [3] and in the data set with Leishmania infantum [4] was inactive. Also, the IC50 at Trypanothione reductase [1] was greater than 75 µM; on Trypanothione reductase [2], 41.8 µM.

In the case of `CC[C@H](C)[C@H](CC(=O)N[C@H](C(=O)N[C@@H](CCC(N)=O)C(=O)N[C@@H](CO)C(=O)N[C@@H](CC(=O)NCC(=O)N[C@H](C(N)=O)[C@@H](C)CC)C(C)C)[C@@H](C)CC)NC(=O)[C@H](CCCCN)NC(=O)[C@@H]1CCCN1C(C)=O`, the outcome with Leishmania infantum [3] and with Leishmania infantum [4] was inactive. For the same compound, the IC50 at Trypanothione reductase [1] was greater than 75 µM; at Trypanothione reductase [2], 53 µM.

Take `CC[C@H](C)[C@H](NC(=O)CNC(=O)[C@@H](NC(=O)[C@@H](CO)NC(=O)[C@H](CCC(N)=O)NC(=O)[C@@H](NC(=O)[C@@H](NC(=O)[C@H](CCCCN)NC(=O)[C@@H]1CCCN1C(C)=O)[C@@H](C)CC)[C@@H](C)CC)C(C)C)C(N)=O`: the result in the data set on Leishmania infantum [3] and with Leishmania infantum [4] was inactive.

As for `CCCC[C@@H](CC(=O)N[C@@H](CCCCN)C(=O)N[C@@H](CCCC)C(N)=O)NC(=O)[C@H](CO)NC(=O)[C@@H](NC(=O)CNC(=O)C[C@H](NC(=O)[C@H](CO)NC(=O)[C@H](CCC(N)=O)NC(=O)C[C@H](NC(=O)[C@@H](NC(=O)[C@H](CCCCN)NC(=O)[C@@H]1CCCN1C(C)=O)[C@@H](C)CC)[C@@H](C)CC)C(C)C)[C@@H](C)CC`, the concentration for half-maximal inhibition (IC50) at Trypanothione reductase [1] stood at 3.11 µM; at Trypanothione reductase [2], 10.3 µM. The half-life at 50 µM at Proteinase K was determined as 215 min.

Turning to `CC[C@H](C)[C@H](NC(=O)C[C@H](C)NC(=O)[C@@H](NC(=O)[C@H](CO)NC(=O)[C@H](CCC(N)=O)NC(=O)C[C@@H](NC(=O)[C@@H](NC(=O)[C@H](CCCCN)NC(=O)C[C@@H]1CCCN1C(C)=O)[C@@H](C)CC)[C@@H](C)CC)C(C)C)C(=O)O`, the outcome in the data set with Leishmania infantum [3] and with Leishmania infantum [4] was inactive. The IC50 at Trypanothione reductase [1] stood at 39.8 µM; on Trypanothione reductase [2], 50.4 µM.

In the case of `CCCC[C@@H](CC(=O)N[C@@H](CCCCN)C(=O)N[C@@H](CCCC)C(N)=O)NC(=O)[C@H](CO)NC(=O)[C@@H](NC(=O)C[C@H](C)NC(=O)[C@@H](NC(=O)[C@H](CO)NC(=O)[C@H](CCC(N)=O)NC(=O)C[C@H](NC(=O)[C@@H](NC(=O)[C@H](CCCCN)NC(=O)C[C@@H]1CCCN1C(C)=O)[C@@H](C)CC)[C@@H](C)CC)C(C)C)[C@@H](C)CC`, the IC50 is 2.69 µM at Trypanothione reductase [1] and 13.9 µM on Trypanothione reductase [2]. Also, the half-life at 50 µM on Proteinase K was determined as 23 min.

One may read the IC50 as the concentration that inhibits the measured activity by half. One may read the half-life as how long it takes for the measured level to halve.
